Experimental data as given in US8129592B2, “Plant isoflavonoid hydroxylases and methods of use thereof” (The Samuel Roberts Noble Foundation, Inc., priority 2003, dated 2012).
Marks after values point to notes of the source that are not given here.

T1: I2′H (MtCYP81E7) (Medicago truncatula, UniProt Q6WNR0)
T1 construct: The open reading frame of MtCYP81E7 was amplified with forward primer; made in house; host or cells: Saccharomyces cerevisiae WAT11, vector YeDP60; microsomal fraction
T1 sequence (Q6WNR0 1-498): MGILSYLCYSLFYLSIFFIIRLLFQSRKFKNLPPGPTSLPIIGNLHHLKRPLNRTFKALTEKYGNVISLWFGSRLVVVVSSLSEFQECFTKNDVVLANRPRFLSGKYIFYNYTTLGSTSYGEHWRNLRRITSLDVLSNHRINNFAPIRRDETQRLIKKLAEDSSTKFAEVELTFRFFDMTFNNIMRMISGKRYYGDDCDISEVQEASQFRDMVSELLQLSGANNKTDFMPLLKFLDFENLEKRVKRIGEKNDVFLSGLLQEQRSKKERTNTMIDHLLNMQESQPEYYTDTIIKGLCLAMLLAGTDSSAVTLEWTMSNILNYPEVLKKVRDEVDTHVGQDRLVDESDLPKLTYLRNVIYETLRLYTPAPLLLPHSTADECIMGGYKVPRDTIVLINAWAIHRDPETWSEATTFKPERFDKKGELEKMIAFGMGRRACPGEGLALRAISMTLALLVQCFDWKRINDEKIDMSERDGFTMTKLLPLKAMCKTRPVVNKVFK

T2: I3′H (MtCYP81E9) (Medicago truncatula, UniProt Q6WNQ9)
T2 construct: made in house; host or cells: Saccharomyces cerevisiae WAT11, vector YeDP60; microsomal fraction
T2 sequence (Q6WNQ9 with tags, fused parts or gaps limits assumed): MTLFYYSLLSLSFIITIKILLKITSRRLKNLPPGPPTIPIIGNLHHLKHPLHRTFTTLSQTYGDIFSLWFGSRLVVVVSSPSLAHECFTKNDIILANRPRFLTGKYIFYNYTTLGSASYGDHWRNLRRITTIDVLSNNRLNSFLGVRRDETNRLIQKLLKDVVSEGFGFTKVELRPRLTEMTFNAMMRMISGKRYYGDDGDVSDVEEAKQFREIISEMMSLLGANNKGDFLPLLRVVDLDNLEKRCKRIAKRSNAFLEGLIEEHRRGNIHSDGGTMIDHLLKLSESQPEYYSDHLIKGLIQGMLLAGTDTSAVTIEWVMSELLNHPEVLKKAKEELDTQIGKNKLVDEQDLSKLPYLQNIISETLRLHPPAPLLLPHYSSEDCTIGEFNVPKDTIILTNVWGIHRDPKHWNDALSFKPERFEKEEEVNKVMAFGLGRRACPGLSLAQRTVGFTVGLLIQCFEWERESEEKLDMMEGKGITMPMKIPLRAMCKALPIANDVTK

T3: MtCYP81E8 (Medicago truncatula, UniProt Q6WNQ8)
T3 construct: The full length CYP81E8 cDNA was directly excised from its original clone; made in house; host or cells: Saccharomyces cerevisiae WAT11, vector YeDP60; microsomal fraction
T3 sequence (Q6WNQ8 1-499): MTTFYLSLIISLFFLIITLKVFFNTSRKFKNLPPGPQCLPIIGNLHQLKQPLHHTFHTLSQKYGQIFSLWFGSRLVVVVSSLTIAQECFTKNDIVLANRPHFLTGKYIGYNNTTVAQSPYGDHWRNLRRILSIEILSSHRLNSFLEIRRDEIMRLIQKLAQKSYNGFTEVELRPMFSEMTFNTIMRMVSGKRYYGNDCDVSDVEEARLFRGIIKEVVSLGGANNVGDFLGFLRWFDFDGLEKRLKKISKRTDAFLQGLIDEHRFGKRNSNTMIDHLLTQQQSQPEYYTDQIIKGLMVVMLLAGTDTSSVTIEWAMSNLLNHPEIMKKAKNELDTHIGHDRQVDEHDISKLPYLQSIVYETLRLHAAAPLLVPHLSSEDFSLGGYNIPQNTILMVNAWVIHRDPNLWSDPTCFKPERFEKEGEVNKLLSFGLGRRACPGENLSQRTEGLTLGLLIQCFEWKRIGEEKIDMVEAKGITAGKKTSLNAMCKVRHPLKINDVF

B1: I2′H (MtCYP81E7) (Medicago truncatula) (protein)
chain: T1 sequence (Q6WNR0 1-498)
notes: The open reading frame of MtCYP81E7 was amplified with forward primer; made in house; host or cells: Saccharomyces cerevisiae WAT11, vector YeDP60; microsomal fraction

Key:
I2′H (MtCYP81E7) = target: T1, I2′H (MtCYP81E7); assay: Hydroxylase assay with yeast microsomes expressing recombinant MtCYP81E7 (I2′H); assay type: biochemical; conditions: for Substrate specificity of I2′H (MtCYP81E7), relative activity: 100% = biochanin A, a = sum of putative 2′ and/or 3′-hydroxylated products, ND = activities not detectable
Procedure: (§1) PCR products were digested with BamHI and KpnI and ligated into the yeast expression vector YeDP60 following BamHI/KpnI digestion. MtCYP81E8 was directly excised from the original clone in pBSK(+) by BamHI and KpnI and inserted into YeDP60. All constructs were sequenced to ensure that there were no PCR-introduced errors. […] After induction with 20% galactose for ˜18 h, yeast cells was harvested, weighed, and immediately processed for microsomal fractionation.
(§2) After incubation at ˜80 rpm for 30 to 40 min, spheroplasts were centrifuged down for 5 min, washed twice with Zymolyase buffer B, and then twice with phosphate buffer A (0.1 M potassium phosphate pH 8.0, 1 M sorbitol, 14 mM 2-mercaptoethanol). The spheroplasts were re-suspended in a minimum vol of phosphate buffer B (0.1 M potassium phosphate pH 8.0, 0.4 M sucrose, 14 mM β-mercaptoethanol, 1 mM PMSF and 1× […] (Roche Diagnostics GmbH, Mannheim, German), and 1 vol of glass beads (diameter at 0.45/0.50 mm) was added. Samples were vigorously vortexed at 4° C., with the quality of cell disruption checked under the microscope. The supernatant was then removed and the beads washed four times with phosphate buffer B. Supernatants were pooled and centrifuged at 12,000 g for 10 min; the resulting supernatant was then ultracentrifuged at 140,000 g for 90 min. The supernatant was discarded and the pellet washed briefly with phosphate buffer C (0.1 M potassium phosphate, pH 8.0, 0.4 M sucrose, 0.5 mM glutathione), and re-suspended in the same buffer plus 5% glycerol at about 12 mg total protein/ml. Protein was quantified using a Bio-Rad protein assay kit (Bio-Rad, Hercules, Calif.).
(§3) Hydroxylase assays were performed in phosphate buffer C in a total volume of 150 μl containing 2 mM NADPH, 40 μM isoflavone substrate and 40˜70 pmol P450 protein. […] The extracts were combined, evaporated under N2, re-suspended in 60 μl of methanol, and analyzed by HPLC or LC-MS. All assays to determine enzyme specificity were carried out in duplicate. For kinetic studies, the isoflavone concentration was varied at a fixed concentration of NADPH (2 mM), and kinetic constants calculated from initial rate data using Lineweaver-Burke double reciprocal plots. All kinetic analyses were carried out in triplicate.
(§4) Reaction products from enzyme assays (30 μl) were analyzed by HPLC.
(§5) Product identification was firstly based on comparisons of chromatographic behavior and UV spectra with authentic standards. Identifications were then confirmed by HPLC-MS, using a HP 1100 liquid chromatograph coupled to a Bruker Esquire Ion-Trap mass spectrometer equipped with an electrospray source. HPLC separation was achieved using a J. T. Baker Bakerbond reverse-phase column (C18, 5 μm, 4.6 mm×250 mm, J. T. Baker, Philipsberg, N.J.). Samples were eluted with the gradient described above but with 0.1% aqueous acetic acid replacing the 1% phosphoric acid. Ion charge control was set at 30,000 with a max acquire time of 100 ms. Mass spectra were recorded over a range of 50-2200 m/z.

I3′H (MtCYP81E9) = target: T2, I3′H (MtCYP81E9); assay: Hydroxylase assay with yeast microsomes expressing recombinant MtCYP81E9 (I3′H); assay type: biochemical; conditions: for Substrate specificity of I3′H (MtCYP81E9), relative activity: 100% = biochanin A, a = sum of putative 2′ and/or 3′-hydroxylated products, b = sum of all the products, ND = activities not detectable
Procedure: as §1, §2, §3, §4, §5

MtCYP81E8 = target: T3, MtCYP81E8; assay: Hydroxylase assay with yeast microsomes expressing recombinant MtCYP81E8; assay type: biochemical; conditions: standard assay conditions, or at different pH values and NADPH concentrations
Procedure: as §1, §2, §3, §4

[1] = substrate: COc1ccc(-c2coc3cc(O)cc(O)c3c2=O)cc1; assay: Hydroxylase assay with yeast microsomes expressing recombinant MtCYP81E7 (I2′H); assay type: biochemical, Medicago truncatula; conditions: other: 2 mM NADPH and pH 8.0, 25.0 °C
Procedure: (§6) After incubation at ˜80 rpm for 30 to 40 min, spheroplasts were centrifuged down for 5 min, washed twice with Zymolyase buffer B, and then twice with phosphate buffer A (0.1 M potassium phosphate pH 8.0, 1 M sorbitol, 14 mM 2-mercaptoethanol). The spheroplasts were re-suspended in a minimum vol of phosphate buffer B (0.1 M potassium phosphate pH 8.0, 0.4 M sucrose, 14 mM β-mercaptoethanol, 1 mM PMSF and 1× protein inhibitor cocktail (Roche Diagnostics GmbH, Mannheim, German), and 1 vol of glass beads (diameter at 0.45/0.50 mm) was added. Samples were vigorously vortexed at 4° C., with the quality of cell disruption checked under the microscope. The supernatant was then removed and the beads washed four times with phosphate buffer B. Supernatants were pooled and centrifuged at 12,000 g for 10 min; the resulting supernatant was then ultracentrifuged at 140,000 g for 90 min. The supernatant was discarded and the pellet washed briefly with phosphate buffer C (0.1 M potassium phosphate, pH 8.0, 0.4 M sucrose, 0.5 mM glutathione), and re-suspended in the same buffer plus 5% glycerol at about 12 mg total protein/ml. Protein was quantified using a Bio-Rad protein assay kit (Bio-Rad, Hercules, Calif.).
(§7) Hydroxylase assays were performed in phosphate buffer C in a total volume of 150 μl containing 2 mM NADPH, 40 μM isoflavone substrate and 40˜70 pmol P450 protein. Reactions were incubated at 25° C. for 1.5 h (over which period the reactions were linear) with gentle shaking and stopped by extracting twice with 500 μl of ethyl acetate. The extracts were combined, evaporated under N2, re-suspended in 60 μl of methanol, and analyzed by HPLC or LC-MS. All assays to determine enzyme specificity were carried out in duplicate. For kinetic studies, the isoflavone concentration was varied at a fixed concentration of NADPH (2 mM), and kinetic constants calculated from initial rate data using Lineweaver-Burke double reciprocal plots. All kinetic analyses were carried out in triplicate.
(§8) Product identification was firstly based on comparisons of chromatographic behavior and UV spectra with authentic standards. Identifications were then confirmed by HPLC-MS, using a HP 1100 liquid chromatograph coupled to a Bruker Esquire Ion-Trap mass spectrometer equipped with an electrospray source. HPLC separation was achieved using a J. T. Baker Bakerbond reverse-phase column (C18, 5 μm, 4.6 mm×250 mm, J. T. Baker, Philipsberg, N.J.). […] Mass spectra were recorded over a range of 50-2200 m/z.

[2] = substrate: COc1ccc(-c2coc3cc(O)ccc3c2=O)cc1; assay: as above; assay type: biochemical, Medicago truncatula; conditions: other: 2 mM NADPH and pH 8.0, 25.0 °C
Procedure: as §6, §7, §8

Row | Molecule | Activity of MtI2′H with substrate (in words) (I2′H (MtCYP81E7)) | Substrate specificity of I2′H (MtCYP81E7), relative activity (I2′H (MtCYP81E7); isoflavone 40 μM) | Activity of MtI3′H with substrate (in words) (I3′H (MtCYP81E9)) | Substrate specificity of I3′H (MtCYP81E9), relative activity (I3′H (MtCYP81E9); isoflavone 40 μM) | further results
1 | O=c1c(-c2ccc(O)cc2)coc2cc(O)ccc12 [Daidzein, 7,4′-dihydroxyisoflavone] | weak activity | 18.6%^a | low activity | 1.73%^a | 
2 | COc1ccc(-c2coc3cc(O)ccc3c2=O)cc1O [3′-Hydroxyformononetin] | negligible activity | 4.7% |  |  | 
3 | NADPH |  |  |  |  | Km (I2′H (MtCYP81E7); read-out: apparent KM value of MtCYP81E7 for NADPH): ~0.17 µM
4 | COc1ccc2c(=O)c(-c3ccc(O)cc3)coc2c1 [Isoformononetin] | Neither enzyme hydroxylated |  | Neither enzyme hydroxylated |  | 
5 | O=c1c(-c2ccc(O)cc2)coc2cc(O)cc(O)c12 [Genistein, 5,7,4′-trihydroxyisoflavone] | weak activity | 10.2%^a |  | 19.13%^a | 
6 | O=c1c(-c2ccc3c(c2)OCO3)coc2cc(O)ccc12 [Pseudobaptigenin] | active | 35% | low activity | 7.6%^a | 
7 | O=c1cc(-c2ccc(O)cc2)oc2cc(O)cc(O)c12 [apigenin] |  |  |  |  | Activity of recombinant MtCYP81E8 with substrate (in words) (MtCYP81E8): no activity
8 | COc1ccc(-c2coc3cc(O)ccc3c2=O)cc1 [Formononetin, 7-hydroxy, 4′-methoxyisoflavone] |  | 37.2% |  | 50% | 
9 | O=C1C[C@@H](c2ccc(O)cc2)Oc2cc(O)ccc21 [liquiritigenin] |  |  |  |  | Activity of recombinant MtCYP81E8 with substrate (in words) (MtCYP81E8): no activity
10 | COc1cc(O)c2c(=O)c(-c3ccc(O)cc3)coc2c1 [Prunetin] | Neither enzyme hydroxylated |  | Neither enzyme hydroxylated |  | 
11 | O=c1cc(-c2ccc(O)c(O)c2)oc2cc(O)cc(O)c12 [luteolin] |  |  |  |  | Activity of recombinant MtCYP81E8 with substrate (in words) (MtCYP81E8): no activity
12 | O=C1C[C@@H](c2ccc(O)cc2)Oc2cc(O)cc(O)c21 [narigenin] |  |  |  |  | Activity of recombinant MtCYP81E8 with substrate (in words) (MtCYP81E8): no activity
13 | COc1ccc(-c2coc3cc(O)cc(O)c3c2=O)cc1 [Biochanin A] |  | 100% |  | 100% | Activity corresponding to 100%, 2′-hydroxylation (I2′H (MtCYP81E7); isoflavone 40 μM, 2 mM NADPH): 53.8 pmol/pmol protein/h; Activity corresponding to 100%, 3′-hydroxylation (I3′H (MtCYP81E9); isoflavone 40 μM, 2 mM NADPH): 98.56 pmol pmol^−1 protein h^−1
14 | COc1ccc(-c2coc3cc(O)ccc3c2=O)c(O)c1 [2′-Hydroxyformononetin] | negligible activity | 9.1%^a | more active | 39.34%^b | 
15 | B1 |  |  |  |  | Km [1]: 51 µM; kcat [1]: 0.033 s⁻¹; Km [2]: 67 µM; kcat [2]: 0.015 s⁻¹
